Test results: patent US9809574B2, “Isoindoline or isoquinoline compounds, a process for their preparation and pharmaceutical compositions containing them” (LES LABORATOIRES SERVIER, priority 2013, dated 2017)
Where a name gives a salt, the structure may show the parent alone.

Columns and labels:
[1] = system: RS4; 11 leukaemia cell line; assay: In vitro cytotoxicity, Microculture Tetrazolium Assay (MTT); type: cell-based; conditions: Homo sapiens, 11 cells exposed for 48 hours
Description: The cytotoxicity studies were carried out on the RS4; 11 leukaemia cell line and on H146 small Cell Lung Carcinoma cell line. The cells are distributed onto microplates and exposed to the test compounds for 48 hours. The cell viability is then quantified by a colorimetric assay, the Microculture Tetrazolium Assay (Cancer Res., 1987, 47, 939-942).

Bcl-2 protein = Bcl-2 protein (histag-Bcl-2, UniProtKB P10415) (Homo sapiens (Human), UniProt P10415); assay: Inhibition of Bcl-2 by the fluorescence polarisation technique; type: binding; conditions: fluorescence polarisation test; incubation for 2 hours; read-out: IC50 (nM) Bcl-2 FP
Chain of Bcl-2 protein (P10415 whole entry): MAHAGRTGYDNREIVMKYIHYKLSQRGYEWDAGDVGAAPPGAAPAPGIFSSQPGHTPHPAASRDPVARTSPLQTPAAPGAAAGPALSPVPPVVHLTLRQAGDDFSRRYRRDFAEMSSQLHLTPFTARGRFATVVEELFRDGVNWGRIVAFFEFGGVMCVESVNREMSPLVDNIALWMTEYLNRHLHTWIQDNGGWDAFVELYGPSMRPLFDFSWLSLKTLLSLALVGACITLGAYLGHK
From the text: For partial inhibitors, the percentage fluorescence polarisation inhibition for a given concentration of the test compound is indicated.

| Structure (SMILES) | IC50 [1] | IC50 (Bcl-2 protein) |
| --- | --- | --- |
| Cc1c(C(=O)N(C)c2ccccc2)cc(-c2cc3c(cc2C(=O)N2Cc4ccccc4C[C@H]2C)CN(C(=O)Oc2ccccc2)CC3)n1C [Example 114, Phenyl 6-{1,5-dimethyl-4-[methyl(phenyl)carbamoyl]-1H-pyrrol-2-yl}-7-[(3R)-3-methyl-1,2,3,4-tetrahydroisoquinoline-2-carbonyl]-1,2,3,4-tetrahydroisoquinoline-2-carboxylate] | 28 nM | 3.8 nM |
| Cc1c(C(=O)N(C)c2ccc(O)cc2)cc(-c2cc3c(cc2C(=O)N2Cc4ccccc4C[C@H]2CN2CCOCC2)CN(C(=O)OC2CCCCC2)CC3)n1C [Example 791, Cyclohexyl 6-{4-[(4-hydroxyphenyl)(methyl)carbamoyl]-1,5-dimethyl-1H-pyrrol-2-yl}-7-[(3S)-3-(morpholin-4-ylmethyl)-1,2,3,4-tetrahydroisoquinoline-2-carbonyl]-1,2,3,4-tetrahydroisoquinoline-2-carboxylate] | 54 nM | 2.8 nM |
| Cc1c(C(=O)N(C)c2ccc(O)cc2)cc(-c2cc3c(cc2C(=O)N2Cc4ccccc4C[C@H]2CN2CCOCC2)CN(C(=O)Oc2ccc(Br)cc2)CC3)n1C [Example 784, 4-Bromophenyl 6-{4-[(4-hydroxyphenyl)(methyl)carbamoyl]-1,5-dimethyl-1H-pyrrol-2-yl}-7-[(3S)-3-(morpholin-4-ylmethyl)-1,2,3,4-tetrahydroisoquinoline-2-carbonyl]-1,2,3,4-tetrahydroisoquinoline-2-carboxylate] | 2.9 nM | 5.1 nM |
| CCCCN(CCCC)C(=O)c1cc(-c2cc3c(cc2C(=O)N2Cc4ccccc4C[C@H]2C)CN(C(=O)Cc2ccccc2)CC3)n(C)c1C [Example 164, N,N-Dibutyl-1,2-dimethyl-5-{7-[(3R)-3-methyl-1,2,3,4-tetrahydroisoquinoline-2-carbonyl]-2-(2-phenylacetyl)-1,2,3,4-tetrahydroisoquinolin-6-yl}-1H-pyrrole-3-carboxamide] | > 150 nM | 14 nM |
| Cc1c(C(=O)N(C)c2ccccc2)cc(-c2cc3c(cc2C(=O)N2Cc4ccccc4C[C@H]2CN2CCOCC2)CN(C(=O)Oc2ccc(C#N)cc2)CC3)n1C [Example 152, 4-Cyanophenyl 6-{1,5-dimethyl-4-[methyl(phenyl)carbamoyl]-1H-pyrrol-2-yl}-7-[(3S)-3-(morpholin-4-ylmethyl)-1,2,3,4-tetrahydroisoquinoline-2-carbonyl]-1,2,3,4-tetrahydroisoquinoline-2-carboxylate] | 29 nM | 6.5 nM |
| Cc1c(C(=O)N(C)c2ccc(O)cc2)cc(-c2cc3c(cc2C(=O)N2Cc4ccccc4C[C@H]2C)CN(C(=O)CN2CCCCC2)C3)n1C [Example 176, 5-{2-[2-(1-Piperidyl)acetyl]-6-[(3R)-3-methyl-1,2,3,4-tetrahydroisoquinoline-2-carbonyl]-2,3-dihydro-1H-isoindol-5-yl}-N-(4-hydroxyphenyl)-N,1,2-trimethyl-1H-pyrrole-3-carboxamide] |  | 78 nM |
| Cc1c(C(=O)N(C)c2ccc(O)cc2)cc(-c2cc3c(cc2C(=O)N2Cc4ccccc4C[C@H]2C)CN(C(=O)CN2CCCCC2)CC3)n1C [Example 799, N-(4-Hydroxyphenyl)-N,1,2-trimethyl-5-{7-[(3R)-3-methyl-1,2,3,4-tetrahydroisoquinoline-2-carbonyl]-2-[2-(piperidin-1-yl)acetyl]-1,2,3,4-tetrahydroisoquinolin-6-yl}-1H-pyrrole-3-carboxamide] | > 150 nM | 15 nM |
| C[C@@H]1Cc2ccccc2CN1C(=O)c1cc2c(cc1-c1cc(C(=O)N(c3ccccc3)c3ccc(O)cc3)c3n1CCCC3)CN(C(=O)OC(C)(C)C)C2 [Example 43, tert-Butyl 5-{1-[(4-hydroxyphenyl)(phenyl)carbamoyl]-5,6,7,8-tetrahydroindolizin-3-yl}-6-[(3R)-3-methyl-1,2,3,4-tetrahydroisoquinoline-2-carbonyl]-2,3-dihydro-1H-isoindole-2-carboxylate] | 502 nM | 77 nM |
| C[C@@H]1Cc2ccccc2CN1C(=O)c1cc2c(cc1-c1cc(C(=O)N(C)c3ccc(O)cc3)c3n1CCCC3)CN(C(=O)Nc1ccccc1)C2 [Example 60, 5-{1-[(4-Hydroxyphenyl)(methyl)carbamoyl]-5,6,7,8-tetrahydroindolizin-3-yl}-6-[(3R)-3-methyl-1,2,3,4-tetrahydroisoquinoline-2-carbonyl]-N-phenyl-2,3-dihydro-1H-isoindole-2-carboxamide] | 46 nM | 5.9 nM |
| C[C@@H]1Cc2ccccc2CN1C(=O)c1cc2c(cc1-c1cc(C(=O)N(C)c3ccc(O)cc3)c3n1CCCC3)CN(C(=O)N(C)c1ccccc1)C2 [Example 82, 5-{1-[(4-Hydroxyphenyl)(methyl)carbamoyl]-5,6,7,8-tetrahydroindolizin-3-yl}-N-methyl-6-[(3R)-3-methyl-1,2,3,4-tetrahydroisoquinoline-2-carbonyl]-N-phenyl-2,3-dihydro-1H-isoindole-2-carboxamide] | > 150 nM | 17 nM |
| C[C@@H]1Cc2ccccc2CN1C(=O)c1cc2c(cc1-c1cc(C(=O)N(C)c3ccc(O)cc3)c3n1CCCC3)CN(C(=O)N1CCC(c3ccccc3)C1)C2 (stereo partly drawn) [Example 66, N-(4-Hydroxyphenyl)-N-methyl-3-{6-[(3R)-3-methyl-1,2,3,4-tetrahydroisoquinoline-2-carbonyl]-2-(3-phenylpyrrolidine-1-carbonyl)-2,3-dihydro-1H-isoindol-5-yl}-5,6,7,8-tetrahydroindolizine-1-carboxamide] | 80 nM | 16 nM |
| Cc1c(C(=O)N(C)c2ccc(O)cc2)cc(-c2cc3c(cc2C(=O)N2Cc4ccccc4C[C@H]2CCCN2CCOCC2)CN(C(=O)Oc2ccccc2)CC3)n1C [Example 808, Phenyl 6-{4-[(4-hydroxyphenyl)(methyl)carbamoyl]-1,5-dimethyl-1H-pyrrol-2-yl}-7-[(3R)-3-[3-(morpholin-4-yl)propyl]-1,2,3,4-tetrahydroisoquinoline-2-carbonyl]-1,2,3,4-tetrahydroisoquinoline-2-carboxylate] | 1.6 nM | 2.7 nM |
| C[C@@H]1Cc2ccccc2CN1C(=O)c1cc2c(cc1-c1cc(C(=O)N(C)c3ccc(O)cc3)c3n1CCCC3)CN(C(=O)CCC1CCCCC1)C2 [Example 32, 3-[2-(3-Cyclohexylpropanoyl)-6-[(3R)-3-methyl-1,2,3,4-tetrahydroisoquinoline-2-carbonyl]-2,3-dihydro-1H-isoindol-5-yl]-N-(4-hydroxyphenyl)-N-methyl-5,6,7,8-tetrahydroindolizine-1-carboxamide] | 141 nM | 47 nM |
| Cc1c(C(=O)N(C)c2ccc(O)cc2)cc(-c2cc3c(cc2C(=O)N2Cc4ccccc4C[C@H]2CCN2CCOCC2)CN(C(=O)OC2CCCCC2)CC3)n1C [Example 807, Cyclohexyl 6-{4-[(4-hydroxyphenyl)(methyl)carbamoyl]-1,5-dimethyl-1H-pyrrol-2-yl}-7-[(3S)-3-[2-(morpholin-4-yl)ethyl]-1,2,3,4-tetrahydroisoquinoline-2-carbonyl]-1,2,3,4-tetrahydroisoquinoline-2-carboxylate] | 26 nM | 3.9 nM |
| CCc1ccc(OC(=O)N2CCc3cc(-c4cc(C(=O)N(C)c5ccc(O)cc5)c5n4CCCC5)c(C(=O)N4Cc5ccccc5C[C@H]4CN4CCOCC4)cc3C2)cc1 [Example 126, 4-Ethylphenyl 6-{1-[(4-hydroxyphenyl)(methyl)carbamoyl]-5,6,7,8-tetrahydroindolizin-3-yl}-7-[(3S)-3-(morpholin-4-ylmethyl)-1,2,3,4-tetrahydroisoquinoline-2-carbonyl]-1,2,3,4-tetrahydroisoquinoline-2-carboxylate] | 5.2 nM | 5.9 nM |
| CC(=O)Nc1ccc(OC(=O)N2CCc3cc(-c4cc(C(=O)N(C)c5ccc(O)cc5)c5n4CCCC5)c(C(=O)N4Cc5ccccc5C[C@H]4C)cc3C2)cc1 [Example 59, 4-Acetamidophenyl 6-{1-[(4-hydroxyphenyl)(methyl)carbamoyl]-5,6,7,8-tetrahydroindolizin-3-yl}-7-[(3R)-3-methyl-1,2,3,4-tetrahydroisoquinoline-2-carbonyl]-1,2,3,4-tetrahydroisoquinoline-2-carboxylate] | 6.8 nM | 3.2 nM |
| C[C@@H]1Cc2ccccc2CN1C(=O)c1cc2c(cc1-c1cc(C(=O)N(C)c3ccc(O)cc3)c3n1CCCC3)CCNC2 [Example 27, N-(4-Hydroxyphenyl)-N-methyl-3-{7-[(3R)-3-methyl-1,2,3,4-tetrahydroisoquinoline-2-carbonyl]-1,2,3,4-tetrahydroisoquinolin-6-yl}-5,6,7,8-tetrahydroindolizine-1-carboxamide; trifluoroacetic acid salt] |  | 83 nM |
| Cc1c(C(=O)N(C)c2ccc(O)cc2)cc(-c2cc3c(cc2C(=O)N2Cc4ccccc4C[C@H]2C)CN(C(=O)Oc2ccc(OCCN(C)C)cc2)CC3)n1C [Example 476, 4-[2-(Dimethylamino)ethoxy]phenyl 6-{4-[(4-hydroxyphenyl)(methyl)carbamoyl]-1,5-dimethyl-1H-pyrrol-2-yl}-7-[(3R)-3-methyl-1,2,3,4-tetrahydroisoquinoline-2-carbonyl]-1,2,3,4-tetrahydroisoquinoline-2-carboxylate] |  | 1.8 nM |
| C[C@@H]1Cc2ccccc2CN1C(=O)c1cc2c(cc1-c1cc(C(=O)N(C)c3ccc(O)cc3)c3n1CCCC3)CNC2 [Example 10, N-(4-Hydroxyphenyl)-N-methyl-3-{6-[(3R)-3-methyl-1,2,3,4-tetrahydroisoquinoline-2-carbonyl]-2,3-dihydro-1H-isoindol-5-yl}-5,6,7,8-tetrahydroindolizine-1-carboxamide] |  | 127 nM |
